Measured values from paper PMC9571628 (Molecules, 2022).

How the values were obtained:
[1] = test system: Ugt1a7 mRNA; assay: qRT-PCR of Ugt1a7 mRNA in liver and intestines of rats after multiple doses; assay type: in vivo; details: DAPA administered to rats for seven consecutive days (1 mg/kg)
Procedure: The qRT-PCR analysis was used to measure mRNA levels of Ugt1a7 in the liver and intestines of rats. Total RNA was isolated from frozen liver and intestine samples using the TRNzol Universal as per the manufacturer’s instructions. A Bio Tek Epoch (Bio Tek Instruments, Inc., Winooski, VT, USA) was used to quantify the concentration and purity of the total RNA based on the ratio of the absorbance between 260 and 280 nm. RNA samples of 1 μg of were converted to complementary (cDNA) using the FastKing RT Kit. The real-time PCR assays were performed using a two-step amplification method according to the manufacturer’s recommendations in a SLAN-96S Real-Time PCR system (Shanghai Hongshi Medical Technology Co., Ltd. Shanghai, China). The PCR cycling conditions were as follows: 95 °C for 15 min, followed by 40 cycles of 95 °C for 10 s and 60 °C for 32 s. The sequences of primers are listed in Table 6. β-actin was used as an internal control.

[2] = Stability of QC samples in rat plasma under different storage and processing conditions; assay type: physicochemical; details: for Accuracy (RE%) / Mean ± SD concentration found: rat plasma, n = 6
Procedure: The stability of QC samples in rat plasma was tested in six replicates at three concentration levels exposed to different storage and processing conditions: autosampler for 6 h after processing, room temperature for 4 h, −80 °C for 30 days, three freeze–thaw cycles (−80 °C to room temperature).

[3] = test system: CYP450; details: cited from earlier work
[4] = cited from earlier work
[5] = test system: UGT1A1; details: cited from earlier work
[6] = test system: UGT1A9; details: cited from earlier work
[7] = Pharmacokinetic interaction study between SOR and DAPA in rats (oral gavage, plasma by UPLC-MS/MS); details: for AUC(0-t) / AUC(0-inf) / CL/F / Cmax / MRT last / MRT inf / Tmax / Vd/F / half-life: male, Sprague-Dawley, rat, in vivo, po, 1 mg/kg, n = 6; for AUC(0-t): AUC0-t; for AUC(0-inf): AUC0–∞; for CL/F: CLz/F; for MRT last: MRT0-t; for MRT inf: MRT0–∞; for Vd/F: Vz/F; for half-life: t1/2z;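 on all read-outs here: parameters derived by non-compartmental analysis of plasma concentration–time data, with analyte levels measured by UPLC-MS/MS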
Procedure: Analytes were quantified using Ultra-Performance Liquid Chromatography-Tandem Mass Spectrometry (UPLC-MS/MS) which consisted of an LC-30A ultra-performance liquid chromatography (Shimadzu, Kyoto, Japan) and Sciex Triple Quad 5500 tandem triple quadrupole mass spectrometer (AB Sciex, Framingham, MA, USA). Chromatographic separation was performed using an XSelect HSS T3 column (2.1 mm × 100 mm, 2.5 μm, Waters, Milford, MA, USA) at 40 °C by gradient elution. The mobile phase consisted of water with 0.1% formic acid and 5 mM ammonium acetate (phase A) and acetonitrile (phase B), and the gradient elution procedure was as follows: 0–0.5 min, 60–90% B; 0.5–3 min, 90% B; 3–3.1 min, 90–60% B; and 3.1–4 min, 60% B. The injection volume was 5 μL.
A volume of 25 µL plasma samples, 2.5 µL IS mixed working solution, and 150 μL methyl tertbutyl ether was added, then vortex-mixed for 1 min. The mixture was centrifuged at 12,000× g for 10 min. The organic phase was transferred to a new centrifuged tube and evaporated to dryness under a stream of nitrogen at room temperature. The dried samples were redissolved with 100 μL of 50% acetonitrile and briefly vortexed for 1 min, then 5 μL was injected into the UPLC-MS/MS for analysis.
Adult male Sprague-Dawley (SD) rats weighing 230 ± 30 g were provided by Beijing Weitong Lihua Experimental Animal Technology Co., Ltd. (Beijing, China). The license number is SCXK (Beijing) 2016–0011. All experimental procedures for this study were reviewed and approved by the Animal Ethics Committee of Hebei General Hospital (Shijiazhuang, China) (No. 2022072). The rats were adapted to the standard laboratory conditions (12 h dark–light cycle, temperature at approximately 23 ± 2 °C, relative humidity of 50 ± 10%) for a week. All the rats were given access to water freely, while the diet was prohibited for 12 h before administration.
Twenty-four healthy rats were randomly divided into four groups (n = 6 in each group). […] Blood samples were then centrifuged at 3500× g for 10 min at 4 °C, and the supernatant was transferred to another centrifuged tube, then stored in a −80 °C freezer until analysis.
DAS 2.1.1 Software (Mathematical Pharmacology Professional Committee of China, Shanghai, China) was used to calculate pharmacokinetic parameters with non-compartmental analysis. The pharmacokinetic analysis included AUC (area under the concentration–time curve), Cmax (maximum plasma concentration), Tmax (time to maximum plasma concentration), t1/2 (time required to eliminate half of plasma drug concentration), CLz/F (clearance of drug plasma volume per time unit), Vz/F (apparent volume of distribution), and MRT (mean residence time). SPSS 25.0 statistical software (SPSS Inc., Chicago, IL, USA) was used to statistically analyze the above-mentioned pharmacokinetic parameters. Statistical comparisons of the experimental and control groups were conducted using a nonparametric rank-sum test or t-test, depending on the data type; p < 0.05 was considered statistically significant.

[8] = Autosampler for 6 h, nominal 15 ng/mL
[9] = Autosampler for 6 h, nominal 800 ng/mL
[10] = Autosampler for 6 h, nominal 1500 ng/mL
[11] = Freeze–thaw stability for three times, nominal 15 ng/mL
[12] = Freeze–thaw stability for three times, nominal 800 ng/mL
[13] = Freeze–thaw stability for three times, nominal 1500 ng/mL
[14] = Room temperature for 4 h, nominal 15 ng/mL
[15] = Room temperature for 4 h, nominal 800 ng/mL
[16] = Room temperature for 4 h, nominal 1500 ng/mL
[17] = −80 °C for 30 days, nominal 15 ng/mL
[18] = −80 °C for 30 days, nominal 800 ng/mL
[19] = −80 °C for 30 days, nominal 1500 ng/mL
[20] = co-administered with multiple doses of SOR vs control group (DAPA alone)
[21] = DAPA 1 mg/kg oral with multiple-doses SOR (100 mg/kg, seven days)

## CCOc1ccc(Cc2cc([C@@H]3O[C@H](CO)[C@@H](O)[C@H](O)[C@H]3O)ccc2Cl)cc1 [DAPA, Dapagliflozin]
[1]; intestines
  effect on the expression of Ugt1a7 in the intestines: no significant effect
[1]; liver
  inhibition of mRNA expression of Ugt1a7 in the liver: 59.31%
[2]; [8]
  Accuracy (RE%): −0.4%
  Mean ± SD concentration found: 14.93 ± 0.83 ng/mL
[2]; [9]
  Accuracy (RE%): 3.8%
  Mean ± SD concentration found: 830.00 ± 15.05 ng/mL
[2]; [10]
  Accuracy (RE%): 9.6%
  Mean ± SD concentration found: 1643.33 ± 32.66 ng/mL
[2]; [11]
  Accuracy (RE%): 1.2%
  Mean ± SD concentration found: 15.18 ± 0.87 ng/mL
[2]; [12]
  Accuracy (RE%): −3.8%
  Mean ± SD concentration found: 769.83 ± 44.56 ng/mL
[2]; [13]
  Accuracy (RE%): −7.4%
  Mean ± SD concentration found: 1388.33 ± 54.19 ng/mL
[2]; [14]
  Accuracy (RE%): −0.7%
  Mean ± SD concentration found: 14.90 ± 0.49 ng/mL
[2]; [15]
  Accuracy (RE%): 11.1%
  Mean ± SD concentration found: 889.00 ± 15.43 ng/mL
[2]; [16]
  Accuracy (RE%): 10.2%
  Mean ± SD concentration found: 1653.33 ± 21.60 ng/mL
[2]; autosampler for 6 h, room temperature for 4 h, −80 °C for 30 days, three cycles of freezing and thawing (−80 °C to room temperature)
  stability in rat plasma: stable
[2]; [17]
  Accuracy (RE%): 2.9%
  Mean ± SD concentration found: 15.43 ± 1.07 ng/mL
[2]; [18]
  Accuracy (RE%): 2.8%
  Mean ± SD concentration found: 822.17 ± 21.66 ng/mL
[2]; [19]
  Accuracy (RE%): −1.1%
  Mean ± SD concentration found: 1483.33 ± 19.66 ng/mL
[3]
  share metabolized by CYP450: < 10%
[4]; with mefenamic acid (a strong UGT1A9 inhibitor)
  increase of exposure of DAPA: 51%
[4]; with rifampin (a pleiotropic enzyme inducer)
  reduction of exposure of DAPA: 22%
[5]
  UGT1A1 inhibitor strength: moderate
[6]
  UGT1A9 inhibitor strength: moderate
[7]; [20]
  decrease of CLz/F of DAPA: 40%
  elevation of MRT0–t of DAPA: 1.48 fold
  elevation of MRT0–∞ of DAPA: 1.80 fold
  elevation of Tmax of DAPA: 1.43 fold
  increase of AUC0–t of DAPA: 1.66 fold
  increase of AUC0–∞ of DAPA: 1.80 fold
[7]; [21]
  AUC(0-t): 8570 ± 2860 ng·h/mL
  AUC(0-inf): 9300 ± 4260 ng·h/mL
  CL/F: 2 mL/min/kg
  Cmax: 871 ± 167 ng/mL
  MRT last: 9.01 ± 1.22 h
  MRT inf: 11.2 ± 4.86 h
  Tmax: 0.83 ± 0.41 h
  Vd/F: 1.12 ± 0.1 L/kg
  half-life: 7.95 ± 4.03 h
[7]; DAPA 1 mg/kg oral, alone
  AUC(0-t): 5160 ± 1030 ng·h/mL
  AUC(0-inf): 5180 ± 1050 ng·h/mL
  CL/F: 3.33 mL/min/kg
  Cmax: 846 ± 76.4 ng/mL
  MRT last: 6.1 ± 0.96 h
  MRT inf: 6.25 ± 1.07 h
  Tmax: 0.58 ± 0.2 h
  Vd/F: 1.27 ± 0.19 L/kg
  half-life: 4.51 ± 0.67 h
